{"source": "patent US5726012A", "about": "“Rapid, high capacity nucleic acid based assay” (E. I. du Pont de Nemours and Company, priority 1994, dated 1998)", "key": {"[1]": {"system": "HIV RF (HIV-1 RNA) in MT-2 cells", "assay": "HIV-1 RNA microtiter plate compound evaluation assay in HIV-1 infected MT-2 cells (gag capture/reporter probes)", "format": "cell-based, HIV-1 (strain RF)", "description": "Compounds to be evaluated for antiviral activity were dissolved in DMSO and diluted at least 1:50 in culture medium, to 2× the highest concentration to be tested. Further, three-fold serial dilutions of the compound in culture medium were performed directly in U bottom microtiter plates (Nunc). After compound dilution, MT-2 cells, which had been sub-cultured one day prior to infection, were added to a final concentration of 5×10^5 cells/ml (1×10^5 cells/well). Cells were incubated with compounds in a volume of 150 μl for 30 minutes at 37° C. in a CO2 incubator. For evaluation of antiviral potency, appropriate dilutions of HIV RF virus stock (50 μl) were added to culture wells containing the cells and the dilutions of the compounds to be tested. Eight wells per plate were left uninfected with 50 μl of medium added instead of virus, while eight wells were infected in the absence of any antiviral compound. For evaluation of compound toxicity, parallel plates were cultured without virus infection. After three days of culture at 37° C. in a humidified chamber inside a CO2 incubator, all but 25 μl of medium/well was removed from the HIV infected plates. 37 μl of 5M GED containing the biotinylated capture oligo was added to the remaining medium and settled cells in each well to a final concentration of 3M GED, 50 nM biotinylated capture oligo. Hybridization of the biotinylated capture oligo to HIV-1 RNA in the cell lysate was carried out in the same microplate well by sealing the plate and incubating for 16-20 hours in a 37° C. incubator. 124 μl of distilled water was added to each well to dilute the hybridization reaction three-fold, and 150 μl aliquots of this diluted mixture was transferred to streptavidin coated microtiter plate wells. The biotin oligo-RNA complex solution was incubated with the immobilized streptavidin for two hours at room temperature, after which the plates were washed six times with DuPont ELISA plate wash buffer (phosphate buffered saline (PBS)/0.05% Tween 20) with a Denley plate washer. A second hybridization was carried out by adding 120 μl of hybridization cocktail containing 4× standard saline citrate (0.15M NaCl, 0.015 sodium citrate) (SSC), 0.66% Triton X-100 and 6.66% deionized formamide, 1 mg/ml bovine serum albumin (BSA) and 5 nM `gag` AP reporter oligo to each well. After hybridization for one hour at 37° C., the plate was again washed six times in PBS/0.05% Tween 20. Alkaline phosphatase activity was detected by addition of 100 μl of substrate detection buffer, consisting of: 0.2 mM 4-methylumbelliferyl phosphate (MUBP, JBL Scientific) in 2.5M diethanolamine pH 8.9 (JBL), 10 mM MgCl2, 5 mM Zinc acetate dihydrate, and 5 mM n-hydroxyethyl-ethylene-diamine-triaceticacid. The plates were incubated at 37° C. and the fluorescence produced measured in a microplate fluorometer (Dynateck) exciting at 365 nm and emitting at 450 nm. A standard curve, prepared by adding known amounts of pDAB 72 in vitro RNA transcript to wells containing lysed, uninfected cells, was run on each microtiter plate.\nIn order to standardize the virus innoculum used in the evaluation of compounds for anti-vital efficacy, a dose response to ddC was determined at several different dilutions of each virus stock to be used. A dilution of each stock of HIV RF virus stock which gaven an IC90 for ddC of 0.2 ug/ml was selected and used in subsequent compound evaluation assays.\nThe microtiter plate compound evaluation assay described in Example 9 above was employed to evaluate the efficacy of cyclohexamide, di-deoxycytidine (ddC) and XJ104 (N,N'-bis[tert-butoxycarbonyl-valyl]-1,6-diphenyl-2S,5S-diamino-3R,4R-dihydroxy(triphenylphosphine adduct)-hexane) as described in WO91/18866, the disclosure of which is hereby incorporated by reference, utilizing the HIV-1 `gag` capture and reporter probes described in Example 2.\nIn the figures below the IC90 and TC50 are indicated. […]"}, "[2]": {"assay": "MTT dye reduction cytotoxicity assay on parallel uninfected MT-2 cultures", "format": "cell-based, human", "conditions": "human", "description": "(§1) Compounds to be evaluated for antiviral activity were dissolved in DMSO and diluted at least 1:50 in culture medium, to 2× the highest concentration to be tested. Further, three-fold serial dilutions of the compound in culture medium were performed directly in U bottom microtiter plates (Nunc). After compound dilution, MT-2 cells, which had been sub-cultured one day prior to infection, were added to a final concentration of 5×10^5 cells/ml (1×10^5 cells/well). Cells were incubated with compounds in a volume of 150 μl for 30 minutes at 37° C. in a CO2 incubator. For evaluation of antiviral potency, appropriate dilutions of HIV RF virus stock (50 μl) were added to culture wells containing the cells and the dilutions of the compounds to be tested. Eight wells per plate were left uninfected with 50 μl of medium added instead of virus, while eight wells were infected in the absence of any antiviral compound. For evaluation of compound toxicity, parallel plates were cultured without virus infection. After three days of culture at 37° C. in a humidified chamber inside a CO2 incubator, all but 25 μl of medium/well was removed from the HIV infected plates. […] Alkaline phosphatase activity was detected by addition of 100 μl of substrate detection buffer, consisting of: 0.2 mM 4-methylumbelliferyl phosphate (MUBP, JBL Scientific) in 2.5M diethanolamine pH 8.9 (JBL), 10 mM MgCl2, 5 mM Zinc acetate dihydrate, and 5 mM n-hydroxyethyl-ethylene-diamine-triaceticacid. The plates were incubated at 37° C. and the fluorescence produced measured in a microplate fluorometer (Dynateck) exciting at 365 nm and emitting at 450 nm. […]\n(§2) In order to assess the potential cytotoxicity of compounds being evaluated for antiviral efficacy, an MTT dye reduction assay was performed at the end of the three day culture period on the parallel, uninfected, but compound treated cultures. […] Solubilized MTT dye product was quantitated using an ELISA microplate reader at 570 nm. […]"}, "MT-2 cells": {"system": "MT-2 cells", "assay": "MTT dye reduction cytotoxicity assay on parallel uninfected MT-2 cultures", "format": "cell-based, human", "conditions": "uninfected MT-2 cells, three days culture; 50% reduction of absorbance at 570 nm in MTT assay; 4320 min", "description": "as §1, §2"}, "[3]": {"conditions": "TC50 to IC90 ratio of greater than 3 regarded as antiviral efficacy"}}, "note": "Like-named read-outs stand apart in the source and are kept apart here."}
{"compound": "C[C@@H]1C[C@@H]([C@H](O)CC2CC(=O)NC(=O)C2)C(=O)[C@@H](C)C1", "note": "[cyclohexamide]", "values": [{"measurement": "IC90", "setting": "[1]; Human immunodeficiency virus 1, MT2, 72 h, read-out: IC90 in the RNA assay", "result": 0.45, "unit": "µg/mL"}, {"measurement": "specific anti-viral efficacy (IC90 in RNA assay compared with TC50 in MTT assay)", "setting": "[1]; [3]", "result": "no specific anti-viral efficacy is apparent"}, {"measurement": "CC50 at 72 h", "setting": "[2]; uninfected MT-2 cells, three days culture, 50% reduction of absorbance at 570 nm in MTT assay, read-out: TC50", "result": 0.45, "unit": "µg/mL"}]}
{"compound": "N,N'-bis[tert-butoxycarbonyl-valyl]-1,6-diphenyl-2S,5S-diamino-3R,4R-dihydroxy(triphenylphosphine adduct)-hexane [XJ104]", "values": [{"measurement": "IC90 in the RNA assay", "setting": "[1]; HIV RF infected MT-2 cells, three days culture, 90% reduction of HIV-1 RNA, FIGS. 4-6", "result": 30, "unit": "µg/mL"}, {"measurement": "specific anti-viral efficacy (IC90 in RNA assay compared with TC50 in MTT assay)", "setting": "[1]; [3]", "result": "no specific anti-viral efficacy is apparent"}, {"measurement": "TC50", "setting": "MT-2 cells", "result": 2, "unit": "µg/mL"}]}
{"compound": "Nc1ccn([C@H]2CC[C@@H](CO)O2)c(=O)n1", "note": "[ddC, di-deoxycytidine]", "values": [{"measurement": "specific anti-viral efficacy (IC90 in RNA assay compared with TC50 in MTT assay)", "setting": "[1]", "result": "displays anti-viral efficacy"}, {"measurement": "IC90", "setting": "[1]; Human immunodeficiency virus 1, MT2, 72 h, HIV RF infected MT-2 cells, three days culture, 90% reduction of HIV-1 RNA, FIGS. 4-6, read-out: IC90 in the RNA assay", "result": 0.13, "unit": "µg/mL"}, {"measurement": "IC90", "setting": "[1]; Human immunodeficiency virus 1, MT2, selected dilution of each HIV RF virus stock, read-out: IC90 for ddC used to standardize virus innoculum", "result": 0.2, "unit": "µg/mL"}, {"measurement": "CC50 at 72 h", "setting": "[2]; mt-2 cells", "result": "> 50", "unit": "µg/mL"}]}
